Results: US20260250275A1, “HETEROARYL ENHANCERS OF THE PARTICULATE GUANYLYL CYCLASE RECEPTOR A” (University of Florida Research Foundation, Incorporated, priority 2022, published 2026)
Read-outs that look alike come from different tables or passages of the source.

Legend:
human GC-A = target: T1, human GC-A (Homo sapiens, UniProt P16066); test: cGMP potentiation (HTRF) in human GC-A overexpressing HEK293 cells with EC20 ANP; format: cell-based; conditions: for LLE (lipophilic ligand efficiency = EC50−cLogP): calculated from EC50 and cLogP; for Emax: HEK293, 100% = saturating ANP (10 nM), 0% = EC20 ANP
T1 construct: host or cells: HEK293
T1 sequence (P16066 33-1061): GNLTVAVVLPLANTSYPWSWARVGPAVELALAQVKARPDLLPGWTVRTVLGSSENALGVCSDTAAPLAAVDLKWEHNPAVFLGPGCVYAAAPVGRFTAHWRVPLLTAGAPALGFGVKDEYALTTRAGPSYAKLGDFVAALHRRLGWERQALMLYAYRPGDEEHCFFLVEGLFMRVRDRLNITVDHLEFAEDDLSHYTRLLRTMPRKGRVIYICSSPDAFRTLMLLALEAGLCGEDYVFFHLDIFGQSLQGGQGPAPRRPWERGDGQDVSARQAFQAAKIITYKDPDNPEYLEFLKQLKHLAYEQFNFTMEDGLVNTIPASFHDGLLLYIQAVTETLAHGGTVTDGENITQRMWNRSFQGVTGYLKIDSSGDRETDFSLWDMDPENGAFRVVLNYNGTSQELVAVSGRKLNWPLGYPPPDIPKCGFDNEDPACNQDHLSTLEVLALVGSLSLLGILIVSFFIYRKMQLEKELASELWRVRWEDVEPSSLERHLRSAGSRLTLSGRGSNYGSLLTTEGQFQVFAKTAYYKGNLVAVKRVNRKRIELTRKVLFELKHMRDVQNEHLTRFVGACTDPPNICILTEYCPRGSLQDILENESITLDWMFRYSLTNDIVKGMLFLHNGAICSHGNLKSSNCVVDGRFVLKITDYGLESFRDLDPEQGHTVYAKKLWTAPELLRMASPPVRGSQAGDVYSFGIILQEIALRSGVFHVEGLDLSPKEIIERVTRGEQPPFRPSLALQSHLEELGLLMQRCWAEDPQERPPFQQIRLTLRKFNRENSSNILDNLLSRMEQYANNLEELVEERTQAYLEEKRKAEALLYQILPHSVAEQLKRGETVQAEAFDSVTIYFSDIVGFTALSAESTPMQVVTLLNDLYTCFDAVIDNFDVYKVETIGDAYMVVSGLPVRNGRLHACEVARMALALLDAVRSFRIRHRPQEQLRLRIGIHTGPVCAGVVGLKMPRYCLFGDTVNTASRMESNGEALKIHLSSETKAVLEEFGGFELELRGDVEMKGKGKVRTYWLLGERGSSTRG
T1 sequence (P01160 124-151 partner limits assumed): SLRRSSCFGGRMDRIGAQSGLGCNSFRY

[1] = cited from earlier work
[2] = potentiation of cGMP in presence of EC20 ANP (20 pM), Tables 1-7, read-out: EC50

Q: With `CN(C)CCN1CCCCC1C(=O)Nc1nc2c(F)cc(F)cc2s1` (centres unmarked) [JUF-S2-003] as the compound, how does the “LLE (lipophilic ligand efficiency = EC50−cLogP)” value (human GC-A) read?
A: 2.51

Q: With `COc1ccc(-c2csc(NC(=O)C3CCCN(CCN(C)C)C3)n2)cc1` (centres unmarked) [JUF-S7-013] as the compound, how does the “LLE (lipophilic ligand efficiency = EC50−cLogP)” value (human GC-A) read?
A: 2.69

Q: With `CN(C)C1CCN(CC(=O)Nc2nc3c(F)cc(F)cc3s2)CC1` [JUF-S10-004] as the compound, how does the Emax (human GC-A) read?
A: 91 to 96%

Q: And the EC50 (human GC-A; [2])?
A: 1500 to 2600 nM

Q: For `N[C@@H]1CCCC(C(=O)Nc2nc3c(F)cc(F)cc3s2)C1` (some centres unmarked) [JUF-S12-001A], which Emax (human GC-A) is on record?
A: 87 to 97%

Q: Which EC50 (human GC-A; [2]) does the source give for `N[C@@H]1CCC[C@H](C(=O)Nc2nc3c(F)cc(F)cc3s2)C1` [JUF-S12-001A] here?
A: 700 to 3100 nM

Q: Which EC50 (human GC-A; [2]) does the source give for `CN(C)CCN[C@@H]1CCC[C@@H](C(=O)Nc2nc3c(F)cc(F)cc3s2)C1` [JUF-S12-002] here?
A: > 5000 nM

Q: For `CN(C)CCN1CCCC(C(=O)Nc2nc3c(F)cc(F)cc3s2)C1` (centres unmarked) [MCUF 651, reference compound], which “Emax values of internal control (FIG. 2)” value (human GC-A; titrated on each 384-test plate) is on record?
A: 80-100 % response

Q: And the EC50 (human GC-A; titrated on each 384-test plate, read-out: Acceptable EC50 values of internal control (FIG. 2))?
A: 200 to 600 nM

Q: What does the source list for `CN(C)CCN1CCCC(C(=O)Nc2nc3c(F)cc(F)cc3s2)C1` (centres unmarked) [MCUF-651]?
A: Activity in vivo [1]: active in vivo; Oral bioavailability ([1]; in vivo, po): orally bioavailable
